Literature values, collected in publication PMC13170702 (Nuclear medicine and biology, 2025).

Details: i.v., low molar activity tracer, PET-CT; cited from earlier work

COC(=O)[C@@H](N)CC(=O)Nc1ccc2c(c1)Cc1cc([18F])ccc1-2 [[^18F]RP-115, methyl N^4-(7-[^18F]fluoro-9H-fluoren-2-yl)asparaginate]
CNS activity uptake (SUV): > 1
